ChEMBL document CHEMBL1201862, “PubChem BioAssay data set” (2004)
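96-well plates; 48 h exposure; 5 concentrations. Endpoints by linear interpolation between flanking doses. Not reached: highest tested concentration assigned. The concentration for 50% growth inhibition is given as GI50.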 The source made the active and inactive calls. No stated cut-off is given here; in the data, active = GI50 up to about 1.1 µM and inactive = higher.

Legend:
Experiment in all cases: NCI-60 cell line screen, 48 h
NCI/ADR-RES = tested on: NCI/ADR-RES
Hs-578T = tested on: Hs-578T
ACHN = tested on: ACHN
SK-MEL-5 = tested on: SK-MEL-5
SN12C = tested on: SN12C
LOX IMVI = tested on: LOX IMVI
NCI-H460 = tested on: NCI-H460
CCRF-CEM = tested on: CCRF-CEM
SF-268 = tested on: SF-268
NCI-H23 = tested on: NCI-H23
OVCAR-3 = tested on: OVCAR-3
MCF7 = tested on: MCF7
SF-539 = tested on: SF-539
HL-60 = tested on: HL-60
SK-MEL-28 = tested on: SK-MEL-28
K562 = tested on: K562
NCI-H522 = tested on: NCI-H522
MOLT-4 = tested on: MOLT-4
EKVX = tested on: EKVX

Structure (SMILES)	GI50 (NCI/ADR-RES)	GI50 (Hs-578T)	GI50 (ACHN)	GI50 (SK-MEL-5)	GI50 (SN12C)	GI50 (LOX IMVI)	GI50 (NCI-H460)	GI50 (CCRF-CEM)	GI50 (SF-268)	GI50 (NCI-H23)	GI50 (OVCAR-3)	GI50 (MCF7)	GI50 (SF-539)	GI50 (HL-60)	GI50 (SK-MEL-28)	GI50 (K562)	GI50 (NCI-H522)	GI50 (MOLT-4)	GI50 (EKVX)
Nc1c(OCC(=O)O)ccc2cc(S(=O)(=O)O)ccc12	> 100 µM (inactive)	> 100 µM (inactive)	> 100 µM (inactive)	> 100 µM (inactive)	> 100 µM (inactive)	> 100 µM (inactive)	> 100 µM (inactive)	> 100 µM (inactive)	> 100 µM (inactive)	> 100 µM (inactive)	> 100 µM (inactive)	> 100 µM (inactive)	> 100 µM (inactive)	> 100 µM (inactive)	> 100 µM (inactive)	> 100 µM (inactive)	> 100 µM (inactive)		
CNC(=O)CNC(=O)N(C[C@@H]1CCCN1C(=O)[C@H](CC(C)C)NC(=O)OC(C)(C)C)C(C)C	> 100 µM (inactive)	> 100 µM (inactive)	> 100 µM (inactive)	> 100 µM (inactive)	> 100 µM (inactive)	> 100 µM (inactive)	> 100 µM (inactive)	> 100 µM (inactive)	> 100 µM (inactive)	> 100 µM (inactive)	> 100 µM (inactive)	> 100 µM (inactive)		> 100 µM (inactive)	> 100 µM (inactive)	> 100 µM (inactive)	> 100 µM (inactive)	> 100 µM (inactive)	> 100 µM (inactive)
COc1ccc2c(c1O)[C@@]13CCCC=C1[C@@H](C2)[N+](C)(C)CC3	> 100 µM (inactive)	77.3 µM (inactive)	> 100 µM (inactive)	91.4 µM (inactive)	> 100 µM (inactive)	> 100 µM (inactive)	> 100 µM (inactive)	> 100 µM (inactive)	> 100 µM (inactive)	> 100 µM (inactive)	37.2 µM (inactive)	> 100 µM (inactive)		56.4 µM (inactive)	> 100 µM (inactive)	57.8 µM (inactive)	63 µM (inactive)		> 100 µM (inactive)
COc1cc(/C=C2\C(=O)N(c3ccc(Cl)cc3)C(c3ccccc3)S2(=O)=O)cc(OC)c1OC (centres undefined)	12.4 µM (inactive)	> 100 µM (inactive)		1.05 µM (active)	> 25.8 µM (inactive)	4.55 µM (inactive)	3.95 µM (inactive)	8.53 µM (inactive)	31 µM (inactive)	6.4 µM (inactive)	25.4 µM (inactive)	4.61 µM (inactive)	57 µM (inactive)	5.04 µM (inactive)	> 54.3 µM (inactive)	0.726 µM (active)	14.5 µM (inactive)	26.9 µM (inactive)	26.8 µM (inactive)
C[C@H]1[C@H]2[C@H]3CC[C@@H]4[C@@]5(C)CC[C@H](O)C(C)(C)[C@@H]5CC[C@@]4(C)[C@]3(C)C[C@H](O)[C@@]2(C)C[C@H]2O[C@]21C	18.5 µM (inactive)	25.2 µM (inactive)	15.2 µM (inactive)	16.6 µM (inactive)	16.9 µM (inactive)	16.4 µM (inactive)	18.9 µM (inactive)	32.4 µM (inactive)	18 µM (inactive)	18.2 µM (inactive)	16.4 µM (inactive)	16.5 µM (inactive)	18.8 µM (inactive)	44 µM (inactive)	15.5 µM (inactive)		22.3 µM (inactive)	27.5 µM (inactive)	24.2 µM (inactive)
COc1cc(C2SC(=N)Nc3c2c(C)nn3C(=O)c2ccccc2O)ccc1O (centres undefined)	> 2.38 µM (inactive)	0.461 µM (active)	1.21 µM (inactive)	2.75 µM (inactive)	> 2.64 µM (inactive)	1.47 µM (inactive)	0.317 µM (active)	2.01 µM (inactive)	> 3.05 µM (inactive)	> 2.3 µM (inactive)	> 2.93 µM (inactive)	> 2.01 µM (inactive)		> 2.32 µM (inactive)	> 10 µM (inactive)	1.46 µM (inactive)	> 3.84 µM (inactive)	> 2.28 µM (inactive)	> 2.63 µM (inactive)
COC1=CC(=O)O/C1=C(\OC)C1OC1c1ccccc1 (centres undefined)	> 100 µM (inactive)	> 100 µM (inactive)	> 100 µM (inactive)	> 100 µM (inactive)	> 100 µM (inactive)	> 100 µM (inactive)	> 100 µM (inactive)	35.2 µM (inactive)	> 100 µM (inactive)	> 100 µM (inactive)	> 100 µM (inactive)	> 100 µM (inactive)	> 100 µM (inactive)	85.7 µM (inactive)	> 100 µM (inactive)		> 100 µM (inactive)	53.7 µM (inactive)	> 100 µM (inactive)
OCC1=C[C@@](COCc2ccccc2)(OCc2ccccc2)[C@@H](OCc2ccccc2)[C@@H]1OCc1ccccc1	3.61 µM (inactive)	21.9 µM (inactive)	22.9 µM (inactive)	15.7 µM (inactive)	2.86 µM (inactive)	7.31 µM (inactive)	18.8 µM (inactive)	2.81 µM (inactive)	11.6 µM (inactive)	16.6 µM (inactive)	11.7 µM (inactive)	3.76 µM (inactive)		23.4 µM (inactive)	35.3 µM (inactive)	10.6 µM (inactive)	11 µM (inactive)	4.57 µM (inactive)	11.7 µM (inactive)
O=C1/C(=C/c2ccc(Cl)cc2)N=C(c2ccccc2)N1c1nc2ccc(Sc3ccccc3)cc2[nH]1	23.6 µM (inactive)	29.2 µM (inactive)	36.4 µM (inactive)	15.5 µM (inactive)	29 µM (inactive)	23.9 µM (inactive)	22.7 µM (inactive)	22.4 µM (inactive)	36.3 µM (inactive)	30.1 µM (inactive)	35.8 µM (inactive)	22.6 µM (inactive)		15.8 µM (inactive)	23.4 µM (inactive)	17.5 µM (inactive)	22.4 µM (inactive)	25.3 µM (inactive)	36.3 µM (inactive)
C=CCN(C(=O)OC(C)(C)C)C1=CC2C(C)=CN(S(=O)(=O)c3ccccc3)C2C(OCc2ccccc2)=C1 (centres undefined)	> 100 µM (inactive)	> 100 µM (inactive)	> 100 µM (inactive)	> 100 µM (inactive)	> 100 µM (inactive)	> 100 µM (inactive)	> 100 µM (inactive)	> 100 µM (inactive)		> 100 µM (inactive)	> 100 µM (inactive)	> 100 µM (inactive)		> 100 µM (inactive)	> 100 µM (inactive)	7.59 µM (inactive)	> 100 µM (inactive)	> 100 µM (inactive)	> 100 µM (inactive)
CC(C(=O)O)c1ccc(-c2ccccc2)c(F)c1 (centres undefined) [FLURBIPROFEN]	> 100 µM (inactive)	> 100 µM (inactive)	> 100 µM (inactive)	> 100 µM (inactive)	> 100 µM (inactive)	> 100 µM (inactive)	> 100 µM (inactive)	> 100 µM (inactive)	> 100 µM (inactive)			> 100 µM (inactive)	> 100 µM (inactive)	> 100 µM (inactive)	> 100 µM (inactive)	> 100 µM (inactive)	> 100 µM (inactive)	> 100 µM (inactive)	> 100 µM (inactive)
